According to patent US8506927B2, “Pegylated fluorobenzamide analogues, their synthesis and use in diagnostic imaging” (Washington University, priority 2011, dated 2013):

Assays:
σ1 receptor = target: T1, σ1 receptor (Cavia porcellus, UniProt Q60492); test: σ1 receptor binding assay, [3H](+)-pentazocine competition; conditions: guinea pig brain membrane homogenates, ~5 nM [3H](+)-pentazocine; mean ± SEM; read-out: σ1 binding affinity (Ki)
T1 construct: using guinea pig brain membrane homogenates (˜300 μg protein); from tissue; host or cells: guinea pig brain membrane homogenate
T1 sequence (Q60492 whole entry): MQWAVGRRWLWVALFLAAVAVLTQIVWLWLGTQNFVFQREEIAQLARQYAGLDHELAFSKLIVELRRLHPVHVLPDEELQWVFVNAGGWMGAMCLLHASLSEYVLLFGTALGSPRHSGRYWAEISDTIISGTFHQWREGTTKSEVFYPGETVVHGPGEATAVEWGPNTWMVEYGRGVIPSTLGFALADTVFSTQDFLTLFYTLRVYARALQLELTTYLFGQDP
Experimental: (§1) This example illustrates in vitro binding studies with the compounds of the present teachings. In this example, in vitro binding studies can be conducted in order to measure the affinity of the target compounds for σ1 and σ2 receptors.
(§2) In these assays, pegylated sigma ligands of the present teachings can be dissolved in N,N-dimethylformamide (DMF), DMSO or ethanol, and can then be diluted in 50 mM Tris-HCl buffer containing 150 mM NaCl and 100 mM EDTA at pH 7.4 prior to performing σ1 and σ2 receptor binding assays Procedures for isolating the membrane homogenates and performing the σ1 and σ2 receptor binding assays have been described in detail previously (Xu, J., et al., Eur. J. Pharmacol. […] (1-3): 8-17, 2005). Briefly, the σ1 receptor binding assays can be conducted in 96-well plates using guinea pig brain membrane homogenates (˜300 μg protein) and ˜5 nM [^3H](+)-pentazocine (34.9 Ci/mmol, Perkin Elmer, Boston, Mass.). The total incubation time can be 90 min at room temperature. Nonspecific binding can be determined from samples that contain 10 μM of cold haloperidol. After 90 min, the reaction can be terminated by the addition of 150 μL of ice-cold wash buffer (10 mM Tris-HCl, 150 mM NaCl, pH 7.4) using a 96 channel transfer pipette (Fisher Scientific, Pittsburgh, Pa.). The samples can be harvested and filtered rapidly through a 96-well fiber glass filter plate (Millipore, Billerica, Mass.) that has been presoaked with 100 μL of 50 mM Tris-HCl buffer at pH 8.0 for 1 h. Each filter can be washed 3 times with 200 μL of ice-cold wash buffer, and the filter can be counted in a Wallac 1450 MicroBeta liquid scintillation counter (Perkin Elmer, Boston, Mass.).
(§3) Data from the competitive inhibition experiments can be modeled using nonlinear regression analysis to determine the concentration that inhibits 50% of the specific binding of the radioligand (IC50 value). Competitive curves can be best fit to a one-site fit and give pseudo-Hill coefficients of 0.6-1.0. Ki values can be calculated using the method of Cheng and Prusoff (Biochem. Pharmacol. 22: 3099-3108, 1973) and can be presented as the mean±1 SEM. For these calculations, one can use a Kd value of 7.89 nM for [^3H](+)-pentazocine and guinea pig brain; for [^3H]DTG and rat liver, for example 30.73 nM.

σ2 receptor = target: T2, σ2 receptor (Rattus norvegicus, UniProt Q5U3Y7); test: σ2 receptor binding assay, [3H]DTG competition in the presence of (+)-pentazocine; conditions: for Ki: rat liver membrane homogenates, ~5 nM [3H]DTG with 1 μM (+)-pentazocine, mean ± SEM, read-out: σ2 binding affinity (Ki); for Ratio (σ1/σ2): ratio of Ki σ1 to Ki σ2
T2 construct: using rat liver membrane homogenates (˜300 μg protein); from tissue; host or cells: rat liver membrane homogenate
T2 sequence (Q5U3Y7 1-176): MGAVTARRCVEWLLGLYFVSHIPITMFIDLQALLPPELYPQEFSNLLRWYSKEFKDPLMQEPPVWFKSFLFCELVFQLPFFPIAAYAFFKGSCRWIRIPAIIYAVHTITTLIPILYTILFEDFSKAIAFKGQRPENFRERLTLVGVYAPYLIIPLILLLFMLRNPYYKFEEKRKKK
Experimental: as §1, §2
σ2 receptor binding assays can be conducted using rat liver membrane homogenates (˜300 μg protein) and ˜5 nM [^3H]DTG (58.1 Ci/mmol, Perkin Elmer, Boston, Mass.) in the presence of 1 μM (+)-pentazocine. The incubation time can be […] at room temperature. Nonspecific binding can be determined from samples that contain 10 μM of cold haloperidol. All other procedures can be identical to those described for the σ1 receptor binding assay above.
as §3

[1] = test system: EMT-6 mouse mammary adenocarcinoma tumor; test: Biodistribution / tumor uptake of 18F-labeled compounds in tumor-bearing mice; format: in vivo; conditions: EMT-6 tumor-bearing female Balb/c mice, versus non-pegylated analog (m=1; X1=H; X2=Br), FIG. 2
Experimental: This example illustrates in vivo evaluation of compounds of the present teachings. All animal experiments can be conducted in compliance with the Guidelines for the Care and Use of Research Animals established by Washington University's Animal Studies Committee. EMT-6 mouse mammary adenocarcinoma cells (5×10^5 cells in 100 uL of phosphate-buffered saline) can be implanted subcutaneously in the scapular region of female Balb/c mice (˜2-month old and 17-22 g; Charles River Laboratories). The biodistribution studies can be initiated 7-10 days after implantation when the tumor size can be ˜0.2 cm^3 (˜200 mg).
For biodistribution studies, 10-120 μCi of an [^18F]-radiolabeled pegylated compound of the present teachings in 100-150 uL of saline can be injected via the tail vein into EMT-6 tumor-bearing female Balb/c mice. Groups of at least 4 mice can be used for each time point. At 5, 30, 60, and 120 min after injection, the mice can be euthanized, and samples of blood, lung, liver, kidney, muscle, fat, heart, brain, bone and tumor can be removed, weighed and counted in a Beckman Gamma 8000 well counter. After counting, the percentage of the injected dose per gram of tissue (% ID/g) can be calculated. The tumor/organ ratios can be calculated by dividing the % ID/g of the tumor by the % ID/g of each organ.
This example illustrates tumor uptake of ^18F-labeled pegylated compounds 6c, 6d and 6g versus a nonpegylated analog (m=1; X1=H; X2=Br).
In these experiments, various ^18F-labeled pegylated compounds of the present teachings as well as a non-pegylated analog were administered to tumor-bearing mice as described in Example 22. The pegylated compounds tested,
[drawing 27] were 6c (m=2; X1=H; X2=Br), 6d (m=3; X1=H; X2=Br) and 6g (m=2; X1=OCH3; X2=Br). A non-pegylated analog (m=1; X1=H; X2=Br) was also tested.

σ1 receptors = σ1 receptors (Homo sapiens, UniProt Q99720); conditions: stated in words with literature references; cited from earlier work
Chain of σ1 receptors (Q99720 whole entry): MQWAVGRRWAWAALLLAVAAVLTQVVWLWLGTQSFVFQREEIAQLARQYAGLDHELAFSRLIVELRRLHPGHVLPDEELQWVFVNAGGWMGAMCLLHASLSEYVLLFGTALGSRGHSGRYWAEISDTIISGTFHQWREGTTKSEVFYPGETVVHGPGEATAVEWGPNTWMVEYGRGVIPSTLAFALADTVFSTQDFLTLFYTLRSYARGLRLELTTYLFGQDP

σ2 receptors = σ2 receptors (Homo sapiens, UniProt Q5BJF2); conditions: stated in words with literature references; cited from earlier work
Chain of σ2 receptors (Q5BJF2 whole entry): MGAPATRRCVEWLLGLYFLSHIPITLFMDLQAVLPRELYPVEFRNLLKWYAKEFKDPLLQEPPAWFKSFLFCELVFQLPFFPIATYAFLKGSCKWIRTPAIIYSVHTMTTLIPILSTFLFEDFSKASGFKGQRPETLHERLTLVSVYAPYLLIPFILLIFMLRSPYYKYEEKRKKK

SMILES	Ki (σ1 receptor)	Ki (σ2 receptor)	Ratio (σ1/σ2) (σ2 receptor)	rate of washout [1]	tumor uptake [1]	affinity for σ1 receptors (σ1 receptors)	affinity for σ2 receptors (σ2 receptors)
COc1cc2c(cc1OC)CN(CCCCNC(=O)c1cc(C)ccc1OCCOCCF)CC2 [6a, N-(4-(6,7-dimethoxy-3,4-dihydroisoquinolin-2(1H)-yl)butyl)-2-(2-(2-fluoroethoxy)ethoxy)-5-methylbenzamide]	277 ± 38 nM	6.75 ± 0.9 nM	41				
O=C(Cc1cccc(Br)c1)NC1CCN(Cc2ccc(F)cc2)CC1 [Yun-143, N-(4-fluorobenzyl)piperidinyl-4-(3-bromophenyl)acetamide]						high affinity	high affinity
COc1cc2c(cc1OC)CN(CCCCNC(=O)c1cc(Br)ccc1OCCOCCF)CC2 [6c, 5-Bromo-N-(4-(6,7-dimethoxy-3,4-dihydroisoquinolin-2(1H)-yl)butyl)-2-(2-(2-fluoroethoxy)ethoxy)benzamide]	1040 nM	1.38 ± 0.2 nM	755	slower rate of washout	higher tumor uptake compared to the non-pegylated analog		
COc1cc2c(cc1OC)CN(CCCCNC(=O)c1cc(C)ccc1OCCOCCOCCF)CC2 [6b, N-(4-(6,7-dimethoxy-3,4-dihydroisoquinolin-2(1H)-yl)butyl)-2-(2-(2-(2-fluoroethoxy)ethoxy)ethoxy)-5-methylbenzamide]	1920 nM	10.1 ± 0.4 nM	190				

Now from value to compound, other results behind:

Ki (σ1 receptor)	Ki (σ2 receptor)	Ratio (σ1/σ2) (σ2 receptor)	rate of washout [1]	SMILES	tumor uptake [1]	affinity for σ1 receptors (σ1 receptors)	affinity for σ2 receptors (σ2 receptors)
9100 nM	33 nM	276		COc1cc2c(cc1OC)CN(CCCCNC(=O)c1cc(Br)cc(OC)c1OCCOCCOCCF)CC2 [6h]			
451 ± 56 nM	6.29 ± 0.6 nM	72		COc1cc2c(cc1OC)CN(CCCCNC(=O)c1cc(I)ccc1OCCOCCF)CC2 [6e]			
669 ± 101 nM	4.67 ± 0.6 nM	143	slower rate of washout	COc1cc2c(cc1OC)CN(CCCCNC(=O)c1cc(Br)cc(OC)c1OCCOCCF)CC2 [6g, 5-bromo-N-(4-(6,7-dimethoxy-3,4-dihydroisoquinolin-2(1H)-yl)butyl)-2-(2-(2-fluoroethoxy)ethoxy)-3-methoxybenzamide]	higher tumor uptake compared to the non-pegylated analog		
1010 nM	9.8 ± 0.4 nM	103	slower rate of washout	COc1cc2c(cc1OC)CN(CCCCNC(=O)c1cc(Br)ccc1OCCOCCOCCF)CC2 [6d, 5-Bromo-N-(4-(6,7-dimethoxy-3,4-dihydroisoquinolin-2(1H)-yl)butyl)-2-(2-(2-(2-fluoroethoxy)ethoxy)ethoxy)benzamide]	higher tumor uptake compared to the non-pegylated analog		
1280 nM	7.47 ± 1.2 nM	171		COc1cc2c(cc1OC)CN(CCCCNC(=O)c1cc(I)ccc1OCCOCCOCCF)CC2 [6f, N-(4-(6,7-dimethoxy-3,4-dihydroisoquinolin-2(1H)-yl)butyl)-2-(2-(2-(2-fluoroethoxy)ethoxy)ethoxy)-5-iodobenzamide]			
